Here are results for two molecules from patent publication US20120121610A1, “THERAPEUTIC AGENT AND ASSAY” (priority 2009, published 2012).

One assay has as its system HCC1937 cells. In words: BrdU pulse / PI bivariate FACS analysis of replisome stability. Type of assay: cell-based. The note with it: mock siRNA-treated HCC1937 cells. On the procedure:
BRCA1 has been implicated previously in the cellular response to IR, and BRCA1-deficient cells fail to activate Chk1 following IR exposure. The inventors investigated the effect of siRNA-mediated knockdown of Claspin in HCC1937 cells which lack functional BRCA1 and which have been previously shown to have a defective G2 checkpoint, failing to arrest on exposure to IR. […] The loss of BrdU incorporation was particularly observed in mid- to late-S phase cells.
(§1) HeLa or HCC1937 cells were seeded at 5×10^4 or 2×10^5 cells into 6-well tissue culture plates respectively, in 1 mL of their media and left for 24 hours. Cells were then washed twice with warm PBS and transfected twice over 48 hours with SMARTpool™ siRNA against Claspin (Dharmacon, Chicago, Ill., USA) at a concentration of 100 nM for 5 hours in serum free media (OptiMEM (Invitrogen)) using Oligofectamine (Invitrogen) as per manufacturer's instructions. After each transfection, cells were then washed once with warm PBS, and 1.5 mL of media added and then left for 19 hours. After transfection cells were trypsinized and seeded into 60 mm dishes and left in fresh media for 24 hours before being treated with either 0 or 2 mM HU for 24 hours. Alternatively cells were untreated, left in a flow cabinet for an equivalent time. […]
A general note: In flow cytometry, cells or beads pass a laser one at a time.

The next assay concerns HeLa cells. The description is as above. In kind it is cell-based. To be noted: hydroxyurea 24 hr. On the procedure: In order to evaluate the effect of Claspin depletion on replisome stability, the ability of Claspin-depleted cells to maintain functional replisomes in the continuous presence of imposed replicational stress was investigated (FIG. 1). To do this, cells were treated with buffer control or 2 mM hydroxyurea (HU) for 24 h, then exposed to a 30 min pulse of BrdU, prior to fixation and PI staining, and subsequent bivariate FACS analysis.
as §1

The target of another assay is T1, MDC1 (UniProt Q14676 1-2089).
T1 construct: Endogenous protein in HeLa whole cell extract
In words: co-immunoprecipitation with anti-Chk1 antibody from HeLa cell extracts, immunoblot. On the procedure:
(§2) Cells were then lysed through 3 freeze/thaw cycles, and clarified by centrifugation at 14,000 rpm for 5 mins at 4° C. The supernatant was then removed and assayed for concentration by Bradford assay (Pierce) and aliquots stored at −70° C. until use. For immunoblotting 25-60 μg of whole cell extract was used per well in Laemmli SDS loading buffer. Extracts were separated on 6-12% SDS-PAGE gels before being transferred to nitrocellulose membrane (Protran) for probing. Membranes were blocked in either 5% Marvel milk or 5% BSA according to antibody manufacturer's guidelines. Membranes were then washed before being probed with primary antibodies diluted in blocking buffer. […] Secondary antibodies were anti-rabbit IgG-HRP, anti-sheep IgG-HRP and anti-mouse IgG-HRP (Jackson Immunologicals) and bands were detected using enhanced chemiluminescence (ECL) (Amersham Pharmacia) and autoradiographic film (FUJI film).
(§3) Immunoprecipitation (IP) as carried out with 500 μg to 1 mg of whole cell extract per IP. […] Complexes isolated were then analysed by immunoblotting.

Another assay deals with T2, TopBP1 (UniProt Q92547 1-1522).
T2 construct: Endogenous protein in HeLa whole cell extract
Described as above. On the procedure: as §2, §3

T2 sequence (Q92547 whole entry): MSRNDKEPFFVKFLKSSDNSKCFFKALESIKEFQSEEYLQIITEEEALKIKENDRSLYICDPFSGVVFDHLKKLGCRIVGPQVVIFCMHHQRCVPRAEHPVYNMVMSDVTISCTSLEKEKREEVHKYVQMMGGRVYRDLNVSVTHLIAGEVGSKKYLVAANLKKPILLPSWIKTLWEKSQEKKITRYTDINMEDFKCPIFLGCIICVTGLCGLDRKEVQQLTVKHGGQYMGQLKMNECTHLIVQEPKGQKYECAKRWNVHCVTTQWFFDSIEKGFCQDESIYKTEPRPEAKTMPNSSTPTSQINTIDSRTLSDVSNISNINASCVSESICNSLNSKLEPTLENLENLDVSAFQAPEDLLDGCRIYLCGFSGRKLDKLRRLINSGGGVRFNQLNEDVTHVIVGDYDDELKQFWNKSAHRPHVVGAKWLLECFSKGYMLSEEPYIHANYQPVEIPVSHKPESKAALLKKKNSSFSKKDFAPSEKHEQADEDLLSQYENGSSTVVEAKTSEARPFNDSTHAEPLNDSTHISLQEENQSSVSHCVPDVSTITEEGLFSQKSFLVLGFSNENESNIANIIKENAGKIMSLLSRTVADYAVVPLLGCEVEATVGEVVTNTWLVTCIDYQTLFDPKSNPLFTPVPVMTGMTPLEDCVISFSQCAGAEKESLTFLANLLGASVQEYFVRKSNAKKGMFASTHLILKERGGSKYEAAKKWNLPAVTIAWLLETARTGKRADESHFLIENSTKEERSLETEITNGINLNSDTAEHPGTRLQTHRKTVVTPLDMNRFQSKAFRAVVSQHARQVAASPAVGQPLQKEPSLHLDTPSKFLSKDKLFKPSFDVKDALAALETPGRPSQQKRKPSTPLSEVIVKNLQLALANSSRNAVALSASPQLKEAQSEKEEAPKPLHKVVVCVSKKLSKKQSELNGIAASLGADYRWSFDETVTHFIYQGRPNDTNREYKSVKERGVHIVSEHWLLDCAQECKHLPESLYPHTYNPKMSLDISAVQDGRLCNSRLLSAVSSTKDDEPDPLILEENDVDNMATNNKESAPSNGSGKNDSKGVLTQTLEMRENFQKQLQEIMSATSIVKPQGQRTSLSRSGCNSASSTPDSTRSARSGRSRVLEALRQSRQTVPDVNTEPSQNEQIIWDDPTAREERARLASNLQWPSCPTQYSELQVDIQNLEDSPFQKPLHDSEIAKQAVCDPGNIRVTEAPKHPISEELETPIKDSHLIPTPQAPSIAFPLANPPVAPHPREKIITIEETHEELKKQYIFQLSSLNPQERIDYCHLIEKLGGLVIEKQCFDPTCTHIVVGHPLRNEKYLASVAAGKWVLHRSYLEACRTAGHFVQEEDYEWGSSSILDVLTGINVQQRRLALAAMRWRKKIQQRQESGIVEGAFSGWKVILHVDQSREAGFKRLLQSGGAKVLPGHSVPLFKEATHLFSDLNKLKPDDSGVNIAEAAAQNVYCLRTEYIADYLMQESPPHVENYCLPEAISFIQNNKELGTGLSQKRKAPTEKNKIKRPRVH
T1 sequence (Q14676 whole entry): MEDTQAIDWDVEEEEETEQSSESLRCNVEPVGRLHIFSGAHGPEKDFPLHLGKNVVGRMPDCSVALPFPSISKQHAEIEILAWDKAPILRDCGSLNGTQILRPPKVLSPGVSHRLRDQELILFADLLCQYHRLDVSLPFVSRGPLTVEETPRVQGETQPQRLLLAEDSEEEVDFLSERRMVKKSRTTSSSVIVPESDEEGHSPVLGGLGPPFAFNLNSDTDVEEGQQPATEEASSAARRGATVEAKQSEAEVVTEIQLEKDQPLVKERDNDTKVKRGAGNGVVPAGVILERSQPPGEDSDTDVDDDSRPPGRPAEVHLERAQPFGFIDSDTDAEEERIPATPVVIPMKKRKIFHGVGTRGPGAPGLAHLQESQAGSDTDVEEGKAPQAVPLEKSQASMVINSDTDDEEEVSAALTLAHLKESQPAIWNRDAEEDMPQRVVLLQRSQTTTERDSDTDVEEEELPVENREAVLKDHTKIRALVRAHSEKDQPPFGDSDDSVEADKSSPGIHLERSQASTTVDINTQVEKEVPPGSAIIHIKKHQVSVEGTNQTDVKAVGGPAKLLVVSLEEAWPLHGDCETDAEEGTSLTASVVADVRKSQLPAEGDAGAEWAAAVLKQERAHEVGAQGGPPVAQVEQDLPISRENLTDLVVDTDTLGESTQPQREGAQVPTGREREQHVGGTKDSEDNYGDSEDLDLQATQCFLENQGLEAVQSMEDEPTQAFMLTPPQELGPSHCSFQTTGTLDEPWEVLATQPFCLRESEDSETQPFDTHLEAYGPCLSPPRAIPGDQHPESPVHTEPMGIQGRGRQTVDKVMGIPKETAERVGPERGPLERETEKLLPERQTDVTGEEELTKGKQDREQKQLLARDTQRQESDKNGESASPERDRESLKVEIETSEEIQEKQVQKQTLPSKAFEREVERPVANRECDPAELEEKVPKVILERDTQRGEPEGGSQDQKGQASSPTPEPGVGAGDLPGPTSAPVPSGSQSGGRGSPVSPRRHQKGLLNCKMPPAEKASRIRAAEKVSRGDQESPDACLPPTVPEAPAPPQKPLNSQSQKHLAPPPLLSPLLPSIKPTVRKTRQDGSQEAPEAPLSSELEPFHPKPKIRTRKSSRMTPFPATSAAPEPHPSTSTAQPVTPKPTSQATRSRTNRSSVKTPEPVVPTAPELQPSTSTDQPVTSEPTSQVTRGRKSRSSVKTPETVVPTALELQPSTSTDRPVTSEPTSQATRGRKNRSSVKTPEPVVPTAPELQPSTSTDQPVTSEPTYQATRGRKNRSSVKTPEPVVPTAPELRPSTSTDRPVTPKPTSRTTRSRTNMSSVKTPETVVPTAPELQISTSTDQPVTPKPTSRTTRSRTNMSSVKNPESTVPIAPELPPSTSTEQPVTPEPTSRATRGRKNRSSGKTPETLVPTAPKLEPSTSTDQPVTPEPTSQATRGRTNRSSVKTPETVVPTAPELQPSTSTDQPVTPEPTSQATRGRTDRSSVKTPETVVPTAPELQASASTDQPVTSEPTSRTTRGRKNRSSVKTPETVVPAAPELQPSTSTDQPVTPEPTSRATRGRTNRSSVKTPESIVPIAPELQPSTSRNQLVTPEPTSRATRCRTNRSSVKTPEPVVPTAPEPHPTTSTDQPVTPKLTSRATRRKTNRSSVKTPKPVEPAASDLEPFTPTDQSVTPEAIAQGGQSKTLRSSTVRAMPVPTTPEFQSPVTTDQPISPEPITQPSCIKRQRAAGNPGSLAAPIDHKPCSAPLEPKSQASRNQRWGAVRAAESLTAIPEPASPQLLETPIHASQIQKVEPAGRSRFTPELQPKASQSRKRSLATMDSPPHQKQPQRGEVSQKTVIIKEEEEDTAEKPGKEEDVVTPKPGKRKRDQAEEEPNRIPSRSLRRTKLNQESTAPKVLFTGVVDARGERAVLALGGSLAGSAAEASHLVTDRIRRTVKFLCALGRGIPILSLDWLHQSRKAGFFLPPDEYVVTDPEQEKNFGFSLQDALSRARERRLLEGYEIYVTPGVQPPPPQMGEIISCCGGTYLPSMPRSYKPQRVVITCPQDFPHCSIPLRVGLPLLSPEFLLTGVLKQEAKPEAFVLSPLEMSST

`NC(=O)NO` [hydroxyurea]: the “accumulation of cells in early S-phase” value in the assay on HCC1937 cells is “accumulation of cells in early S-phase”. For the same molecule, the “accumulation of cells in early S phase” value with HeLa cells is “significant accumulation of cells in early S phase”.

B1: Chk1 (serine/threonine protein kinase Chk1) (enzyme, UniProt O14757 1-476, looked up)
chain: MAVPFVEDWDLVQTLGEGAYGEVQLAVNRVTEEAVAVKIVDMKRAVDCPENIKKEICINKMLNHENVVKFYGHRREGNIQYLFLEYCSGGELFDRIEPDIGMPEPDAQRFFHQLMAGVVYLHGIGITHRDIKPENLLLDERDNLKISDFGLATVFRYNNRERLLNKMCGTLPYVAPELLKRREFHAEPVDVWSCGIVLTAMLAGELPWDQPSDSCQEYSDWKEKKTYLNPWKKIDSAPLALLHKILVENPSARITIPDIKKDRWYNKPLKKGAKRPRVTSGGVSESPSGFSKHIQSNLDFSPVNSASSEENVKYSSSQPEPRTGLSLWDTSPSYIDKLVQGISFSQPTCPDHMLLNSQLLGTPGSSQNPWQRLVKRMTRFFTKLDADKSYQCLKETCEKLGYQWKKSCMNQVTISTTDRRNNKLIFKVNLLEMDDKILVDFRLSKGDGLEFKRHFLKIKGKLIDIVSSQKIWLPAT
notes: Endogenous protein in HeLa whole cell extract; HeLa is a human cell line; also called Chk1 protein kinase
B1: the binding result with MDC1 and with TopBP1 was “no binding” each time.
